Test results: ChEMBL document CHEMBL1201862, “PubChem BioAssay data set” (2004)
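These data come from cells grown in 96-well plates and exposed to compound for 48 hours at five concentrations. GI50 = concentration required for 50% inhibition of growth.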 Activity calls are given as the source filed them. Cut-off read from the data, not from the text of the source: active = GI50 up to about 1.1 µM and inactive = higher.

Experiments:
Assay in all cases: NCI-60 cell line screen, 48 h
UACC-257 = system: UACC-257
SK-MEL-2 = system: SK-MEL-2
SNB-75 = system: SNB-75
LOX IMVI = system: LOX IMVI
NCI-H522 = system: NCI-H522
NCI-H23 = system: NCI-H23
HT-29 = system: HT-29
HCT-116 = system: HCT-116
UACC-62 = system: UACC-62
TK-10 = system: TK-10
SK-MEL-28 = system: SK-MEL-28
HOP-62 = system: HOP-62
OVCAR-4 = system: OVCAR-4
SK-MEL-5 = system: SK-MEL-5
OVCAR-8 = system: OVCAR-8
COLO 205 = system: COLO 205
A549 = system: A549
SF-295 = system: SF-295
MCF7 = system: MCF7
NCI/ADR-RES = system: NCI/ADR-RES

SMILES | GI50 (UACC-257) | GI50 (SK-MEL-2) | GI50 (SNB-75) | GI50 (LOX IMVI) | GI50 (NCI-H522) | GI50 (NCI-H23) | GI50 (HT-29) | GI50 (HCT-116) | GI50 (UACC-62) | GI50 (TK-10) | GI50 (SK-MEL-28) | GI50 (HOP-62) | GI50 (OVCAR-4) | GI50 (SK-MEL-5) | GI50 (OVCAR-8) | GI50 (COLO 205) | GI50 (A549) | GI50 (SF-295) | GI50 (MCF7) | GI50 (NCI/ADR-RES)
Cc1cccc(NC(N)=S)c1 | > 100 µM (inactive) | > 100 µM (inactive) | > 100 µM (inactive) | > 100 µM (inactive) | > 100 µM (inactive) | > 100 µM (inactive) | > 100 µM (inactive) | > 100 µM (inactive) | > 100 µM (inactive) | > 100 µM (inactive) | > 100 µM (inactive) | > 100 µM (inactive) | > 100 µM (inactive) |  |  |  |  |  |  | 
COc1c2c(c3ccccc3c1O)C1C=CC2C1 (stereo not drawn) |  | 17.3 µM (inactive) |  | 4.48 µM (inactive) | 14.9 µM (inactive) | 14.6 µM (inactive) | 19.7 µM (inactive) | 4 µM (inactive) | 15.4 µM (inactive) | 22.3 µM (inactive) | 23.3 µM (inactive) | 16.1 µM (inactive) | 15.4 µM (inactive) | 5.77 µM (inactive) | 13.7 µM (inactive) | 16.1 µM (inactive) | 19.2 µM (inactive) |  |  | 
COC(=O)C1=C(C)N2CCSC2(C)C(C(=O)OC)C1c1cccc(Cl)c1 (stereo not drawn) | 4.89 µM (inactive) | 17.7 µM (inactive) | 10.2 µM (inactive) |  |  | 20.5 µM (inactive) | 16.6 µM (inactive) | 13.6 µM (inactive) | 12.8 µM (inactive) | 41.9 µM (inactive) | 19.1 µM (inactive) | 18.9 µM (inactive) | 49.7 µM (inactive) | 14.5 µM (inactive) | 22.6 µM (inactive) | 18.5 µM (inactive) | 20.4 µM (inactive) | 13.9 µM (inactive) |  | 
COc1ccc(-c2c3c(nc4[nH]c(=S)[nH]c(=S)c24)CCCC3)cc1OC | 32 µM (inactive) |  | 14.3 µM (inactive) | 16.8 µM (inactive) |  | 29.3 µM (inactive) | 22.1 µM (inactive) | 29.4 µM (inactive) | 19.6 µM (inactive) | 17.6 µM (inactive) | 24.2 µM (inactive) | 19.6 µM (inactive) | 36.6 µM (inactive) | 16.6 µM (inactive) | 23.9 µM (inactive) | 45 µM (inactive) | 21.3 µM (inactive) | 14.7 µM (inactive) | 29.6 µM (inactive) | 21.5 µM (inactive)
Oc1cc2cc(O)nc(O)c2c(O)n1 | > 100 µM (inactive) |  | > 100 µM (inactive) | > 100 µM (inactive) | > 100 µM (inactive) | > 100 µM (inactive) | > 100 µM (inactive) | > 100 µM (inactive) | > 100 µM (inactive) | > 100 µM (inactive) |  | > 100 µM (inactive) | > 100 µM (inactive) | > 100 µM (inactive) |  | > 100 µM (inactive) | > 100 µM (inactive) | > 100 µM (inactive) |  | 
COP(=O)(OC)C(Cc1c[nH]c2ccccc12)NC(=O)OCc1ccccc1 (stereo not drawn) | > 100 µM (inactive) | > 100 µM (inactive) | > 100 µM (inactive) | > 100 µM (inactive) | > 100 µM (inactive) | > 100 µM (inactive) | > 100 µM (inactive) | > 100 µM (inactive) |  | > 100 µM (inactive) | > 100 µM (inactive) | > 100 µM (inactive) | 91 µM (inactive) | > 100 µM (inactive) | > 100 µM (inactive) | > 100 µM (inactive) | > 100 µM (inactive) | > 100 µM (inactive) | > 100 µM (inactive) | > 100 µM (inactive)
BrC(/C=N/Nc1nnc(-c2ccccc2)c(-c2ccccc2)n1)C(Br)c1ccccc1 (stereo not drawn) | 14.1 µM (inactive) | 19.9 µM (inactive) | 22.2 µM (inactive) | 41.5 µM (inactive) | 14.5 µM (inactive) | 22.2 µM (inactive) | 34 µM (inactive) |  | 18.6 µM (inactive) | 35.8 µM (inactive) | 37.3 µM (inactive) | 20.6 µM (inactive) | > 10 µM (inactive) | 21.9 µM (inactive) | 38.5 µM (inactive) | 33.2 µM (inactive) | 29.3 µM (inactive) | 30.5 µM (inactive) |  | 
Cc1cc(O)nc(NN2C(Cl)C(=O)C2c2ccco2)n1 (stereo not drawn) | 48.9 µM (inactive) | 27.6 µM (inactive) | 13.7 µM (inactive) | 23.3 µM (inactive) |  | 28 µM (inactive) | 34 µM (inactive) | 43.4 µM (inactive) | 26.5 µM (inactive) | 61.2 µM (inactive) | > 10 µM (inactive) | 32.6 µM (inactive) | 19.7 µM (inactive) | 41.7 µM (inactive) | 46.5 µM (inactive) | 78.2 µM (inactive) | 77.6 µM (inactive) |  |  | 
C/C(N)=N/OCc1nc(C)no1 | > 100 µM (inactive) |  | > 100 µM (inactive) |  | > 100 µM (inactive) | > 100 µM (inactive) | > 100 µM (inactive) | > 100 µM (inactive) | > 100 µM (inactive) | > 100 µM (inactive) | > 100 µM (inactive) | > 100 µM (inactive) | > 100 µM (inactive) | > 100 µM (inactive) | > 100 µM (inactive) | > 100 µM (inactive) | > 100 µM (inactive) | > 100 µM (inactive) | > 100 µM (inactive) | > 100 µM (inactive)
CC1CC2C3CCC4=CC(=O)C=CC4(C)C3(F)C(O)CC2(C)C1(O)C(=O)COP(=O)(O)O (stereo not drawn) | > 100 µM (inactive) | > 100 µM (inactive) | > 100 µM (inactive) | > 100 µM (inactive) | > 100 µM (inactive) | > 100 µM (inactive) | > 100 µM (inactive) | > 33.7 µM (inactive) | > 100 µM (inactive) | > 100 µM (inactive) | > 100 µM (inactive) | > 100 µM (inactive) | > 100 µM (inactive) | > 100 µM (inactive) | > 100 µM (inactive) | > 100 µM (inactive) | > 100 µM (inactive) | > 100 µM (inactive) | > 100 µM (inactive) | 
CC1[C@@]2(O[C@@H]3C=C4C5CCC6Cc7nc8c(nc7C[C@@]6(C)C5C[C@H](O)[C@@]4(C)[C@]13O)CC1CCc3c(cc4c5c3C(O)C[C@H]5[C@@H](C)C3(O4)OC(C)(C)CC3O)[C@]1(C)C8)O[C@@](C)(CO)C[C@@H]2O (stereo partly drawn) | 1.3 µM (inactive) | 0.436 µM (active) | 0.0182 µM (active) | 0.23 µM (active) | 0.745 µM (active) |  | 0.402 µM (active) | 0.558 µM (active) | 0.169 µM (active) |  |  | 0.102 µM (active) |  | 0.303 µM (active) | 3.24 µM (inactive) | 0.57 µM (active) | 0.167 µM (active) | 0.06 µM (active) | 0.21 µM (active) | 
Nc1ccn(C2OC(CO)C(O)C2O)c(=O)c1 (stereo not drawn) |  |  | 583 µM (inactive) | 143 µM (inactive) | > 625 µM (inactive) | > 625 µM (inactive) | 270 µM (inactive) | 125 µM (inactive) | 337 µM (inactive) |  | > 625 µM (inactive) | 136 µM (inactive) | 285 µM (inactive) | > 625 µM (inactive) | 137 µM (inactive) | 164 µM (inactive) | 179 µM (inactive) | > 625 µM (inactive) | 188 µM (inactive) | 180 µM (inactive)
